Several values for one entry are separate records, joined by “and”; a condition that tells them apart may be missing. Identical values can stand only once. Toxic doses and inconclusive results are not listed.
Test system: CD2F1 mice, L1210 leukemia ip, survival T/C
Experiment: NCI In Vivo Anticancer Drug Screen. Data for tumor model L1210 Leukemia (intraperitoneal) in CD2F1 (CDF1) mice
Details: higher = longer survival
Summary of the method: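 Activity against a transplanted murine tumor was judged by comparing the compound group with a vehicle group. The outcome in the treated animals was divided by that in the controls.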

[1] = endpoint: mean survival time, dose: 100.0 mg/kg/injection, schedule: Q04DX003 (ip), vehicle: saline with Tween-80
[2] = endpoint: mean survival time, dose: 100.0 mg/kg/injection, schedule: Q04DX003 (ip), vehicle: saline
[3] = endpoint: mean survival time, dose: 100.0 mg/kg/injection, schedule: Q01DX009 (ip), vehicle: saline with Tween-80
[4] = endpoint: mean survival time, dose: 200.0 mg/kg/injection, schedule: Q01DX009 (ip), vehicle: saline with Tween-80
[5] = endpoint: mean survival time, dose: 200.0 mg/kg/injection, schedule: Q04DX003 (ip), vehicle: saline with Tween-80
[6] = endpoint: mean survival time, dose: 400.0 mg/kg/injection, schedule: Q04DX003 (ip), vehicle: saline with Tween-80
[7] = endpoint: mean survival time, dose: 25.0 mg/kg/injection, schedule: Q04DX002 (ip), vehicle: saline with Tween-80
[8] = endpoint: mean survival time, dose: 50.0 mg/kg/injection, schedule: Q04DX002 (ip), vehicle: saline with Tween-80
[9] = endpoint: mean survival time, dose: 100.0 mg/kg/injection, schedule: Q04DX002 (ip), vehicle: saline with Tween-80
[10] = endpoint: mean survival time, dose: 25.0 mg/kg/injection, schedule: Q01DX009 (ip), vehicle: saline with Tween-80
[11] = endpoint: mean survival time, dose: 50.0 mg/kg/injection, schedule: Q01DX009 (ip), vehicle: saline with Tween-80
[12] = endpoint: mean survival time, dose: 75.0 mg/kg/injection, schedule: Q01DX009 (ip), vehicle: saline
[13] = endpoint: mean survival time, dose: 150.0 mg/kg/injection, schedule: Q01DX009 (ip), vehicle: saline
[14] = endpoint: mean survival time, dose: 200.0 mg/kg/injection, schedule: Q04DX002 (ip), vehicle: saline with Tween-80

## C=C1CC2(CCC23COC(=O)C3=C)OC1=O (stereo not given)
endpoint: mean survival time, dose: 0.78 mg/kg/injection, schedule: Q01DX009 (ip), vehicle: other
  T/C: 107 % of control
endpoint: mean survival time, dose: 0.78 mg/kg/injection, schedule: Q04DX002 (ip), vehicle: other
  T/C: 100 % of control
endpoint: mean survival time, dose: 0.78 mg/kg/injection, schedule: Q04DX003 (ip), vehicle: other
  T/C: 100 % of control
endpoint: mean survival time, dose: 1.56 mg/kg/injection, schedule: Q01DX009 (ip), vehicle: other
  T/C: 102 % of control
endpoint: mean survival time, dose: 1.56 mg/kg/injection, schedule: Q04DX002 (ip), vehicle: other
  T/C: 105 % of control
endpoint: mean survival time, dose: 1.56 mg/kg/injection, schedule: Q04DX003 (ip), vehicle: other
  T/C: 108 % of control
endpoint: mean survival time, dose: 3.12 mg/kg/injection, schedule: Q01DX009 (ip), vehicle: other
  T/C: 95 % of control
endpoint: mean survival time, dose: 3.12 mg/kg/injection, schedule: Q04DX002 (ip), vehicle: other
  T/C: 105 % of control
endpoint: mean survival time, dose: 3.12 mg/kg/injection, schedule: Q04DX003 (ip), vehicle: other
  T/C: 102 % of control
endpoint: mean survival time, dose: 6.25 mg/kg/injection, schedule: Q01DX009 (ip), vehicle: other
  T/C: 107 % of control
endpoint: mean survival time, dose: 6.25 mg/kg/injection, schedule: Q04DX002 (ip), vehicle: other
  T/C: 109 % of control
endpoint: mean survival time, dose: 6.25 mg/kg/injection, schedule: Q04DX003 (ip), vehicle: other
  T/C: 105 % of control
endpoint: mean survival time, dose: 12.5 mg/kg/injection, schedule: Q01DX001 (ip), vehicle: other
  T/C: 107 % of control

## COc1cc2cc3c4cc5c(cc4cc[n+]3c(C)c2cc1OC)OCO5 (tested in a mixture with another compound)
endpoint: mean survival time, dose: 25.0 mg/kg/injection, schedule: Q04DX003 (ip), vehicle: saline
  T/C: 122 % of control
endpoint: mean survival time, dose: 50.0 mg/kg/injection, schedule: Q04DX003 (ip), vehicle: saline
  T/C: 122 % of control
[1]
  T/C: 92 % of control
[2]
  T/C: 118 % of control

## O=C(CCl)Nc1ccc(Cl)cc1
endpoint: mean survival time, dose: 25.0 mg/kg/injection, schedule: Q01DX009 (ip), vehicle: Klucel (hydroxypropylcellulose) (HPC)
  T/C: 97 % of control
endpoint: mean survival time, dose: 50.0 mg/kg/injection, schedule: Q01DX009 (ip), vehicle: Klucel (hydroxypropylcellulose) (HPC)
  T/C: 96 % of control
endpoint: mean survival time, dose: 50.0 mg/kg/injection, schedule: Q04DX003 (ip), vehicle: Klucel (hydroxypropylcellulose) (HPC)
  T/C: 97 % of control
endpoint: mean survival time, dose: 100.0 mg/kg/injection, schedule: Q04DX003 (ip), vehicle: Klucel (hydroxypropylcellulose) (HPC)
  T/C: 100 % of control
[1]
  T/C: 106 % of control

## Cc1ccc(NC(=O)CCl)cc1C
[3]
  T/C: 100 % of control
[1]
  T/C: 96 % of control
[4]
  T/C: 97 % of control
[5]
  T/C: 95 % of control
[6]
  T/C: 93 % of control

## CCCCCC(O)CCC(=O)NN (stereo not given)
[2]
  T/C: 100 % of control
endpoint: mean survival time, dose: 200.0 mg/kg/injection, schedule: Q04DX003 (ip), vehicle: saline
  T/C: 117 % of control

## CCCCCCCCCCCc1cc(=O)n(-c2cc(Cl)ccc2Cl)n1C
[7]
  T/C: 96 % of control
[8]
  T/C: 88 % of control
[9]
  T/C: 86 % of control

## O=C(O)/C=C/C(=O)Nc1cc2c(cc1Br)-c1ccccc1C2O (stereo not given)
[1]
  T/C: 100 % of control
[5]
  T/C: 102 % of control
[6]
  T/C: 94 % of control

## c1cc(NC2CCCCC2)ccc1CN1CCOCC1
endpoint: mean survival time, dose: 12.5 mg/kg/injection, schedule: Q01DX009 (ip), vehicle: saline + Tween-80 + alcohol
  T/C: 99 % of control and 100 % of control
endpoint: mean survival time, dose: 25.0 mg/kg/injection, schedule: Q01DX009 (ip), vehicle: saline + Tween-80 + alcohol
  T/C: 99 % of control and 102 % of control
endpoint: mean survival time, dose: 50.0 mg/kg/injection, schedule: Q01DX009 (ip), vehicle: saline + Tween-80 + alcohol
  T/C: 97 % of control and 100 % of control
endpoint: mean survival time, dose: 100.0 mg/kg/injection, schedule: Q01DX009 (ip), vehicle: saline + Tween-80 + alcohol
  T/C: 99 % of control and 103 % of control
endpoint: mean survival time, dose: 200.0 mg/kg/injection, schedule: Q01DX009 (ip), vehicle: saline + Tween-80 + alcohol
  T/C: 94 % of control and 100 % of control
endpoint: mean survival time, dose: 400.0 mg/kg/injection, schedule: Q01DX009 (ip), vehicle: saline + Tween-80 + alcohol
  T/C: 97 % of control and 100 % of control

## Cc1cccc(C)c1NC(=S)NNC(=O)c1ccncc1
[10]
  T/C: 101 % of control
[11]
  T/C: 97 % of control
[3]
  T/C: 92 % of control

## CCCCCCN(CCCCCC)CC(O)c1ccncc1 (stereo not given)
endpoint: mean survival time, dose: 25.0 mg/kg/injection, schedule: Q04DX003 (ip), vehicle: saline sonified
  T/C: 100 % of control
endpoint: mean survival time, dose: 50.0 mg/kg/injection, schedule: Q04DX003 (ip), vehicle: saline sonified
  T/C: 92 % of control
endpoint: mean survival time, dose: 100.0 mg/kg/injection, schedule: Q04DX003 (ip), vehicle: saline sonified
  T/C: 100 % of control

## CCOc1ccc(/C=C/C(=O)c2ccc(C)cc2)cc1OCC
endpoint: mean survival time, dose: 37.5 mg/kg/injection, schedule: Q01DX009 (ip), vehicle: saline
  T/C: 98 % of control
[12]
  T/C: 98 % of control
[13]
  T/C: 113 % of control

## C=C(CC(=O)O)C(=O)O
[1]
  T/C: 93 % of control
[5]
  T/C: 98 % of control

## Cc1ccc(C(=Nc2ccccc2)N=P(c2ccccc2)(c2ccccc2)c2ccccc2)cc1
endpoint: median survival time, dose: 12.5 mg/kg/injection, schedule: Q01DX005 (ip), vehicle: saline with Tween-80
  T/C: 102 % of control
endpoint: median survival time, dose: 25.0 mg/kg/injection, schedule: Q01DX005 (ip), vehicle: saline with Tween-80
  T/C: 105 % of control
endpoint: median survival time, dose: 50.0 mg/kg/injection, schedule: Q01DX005 (ip), vehicle: saline with Tween-80
  T/C: 105 % of control
endpoint: median survival time, dose: 100.0 mg/kg/injection, schedule: Q01DX005 (ip), vehicle: saline with Tween-80
  T/C: 91 % of control

## CN(C)c1ccc(/C=C2N=C(/C=C\c3ccccc3)OC\2=O)cc1
[9]
  T/C: 98 % of control
[14]
  T/C: 94 % of control
endpoint: mean survival time, dose: 400.0 mg/kg/injection, schedule: Q04DX002 (ip), vehicle: saline with Tween-80
  T/C: 105 % of control

## O=C(Nc1nncs1)c1cccs1
endpoint: mean survival time, dose: 12.5 mg/kg/injection, schedule: Q01DX009 (ip), vehicle: saline with Tween-80
  T/C: 95 % of control and 104 % of control
[10]
  T/C: 93 % of control and 103 % of control
[11]
  T/C: 93 % of control and 94 % of control
[3]
  T/C: 92 % of control and 100 % of control
[4]
  T/C: 118 % of control
endpoint: mean survival time, dose: 400.0 mg/kg/injection, schedule: Q01DX009 (ip), vehicle: saline with Tween-80
  T/C: 172 % of control

## CCn1ccc(=O)nc1
endpoint: mean survival time, dose: 12.5 mg/kg/injection, schedule: Q04DX002 (ip), vehicle: saline with Tween-80
  T/C: 95 % of control
[7]
  T/C: 95 % of control
[8]
  T/C: 106 % of control

## Cc1c2cnccc2c(C)c2c1c1ccccc1n2CCCCCCCl
[1]
  T/C: 91 % of control
[5]
  T/C: 101 % of control

## CC(C)(C)N.[O]=[Cr](=[O])([OH])[OH]
endpoint: mean survival time, dose: 5.0 mg/kg/injection, schedule: Q01DX001 (ip), vehicle: saline
  T/C: 104 % of control
endpoint: mean survival time, dose: 10.0 mg/kg/injection, schedule: Q01DX001 (ip), vehicle: saline
  T/C: 102 % of control
endpoint: mean survival time, dose: 20.0 mg/kg/injection, schedule: Q01DX001 (ip), vehicle: saline
  T/C: 96 % of control
endpoint: mean survival time, dose: 40.0 mg/kg/injection, schedule: Q01DX001 (ip), vehicle: saline
  T/C: 94 % of control

## COC(=O)c1cc(C)ccc1O
[3]
  T/C: 96 % of control
[1]
  T/C: 90 % of control
[4]
  T/C: 101 % of control
[5]
  T/C: 93 % of control
[6]
  T/C: 100 % of control

## O=S1(=O)OCCC1C(O)(c1ccccc1)c1ccccc1 (stereo not given)
[12]
  T/C: 97 % of control
endpoint: mean survival time, dose: 75.0 mg/kg/injection, schedule: Q04DX003 (ip), vehicle: saline
  T/C: 100 % of control
[13]
  T/C: 103 % of control
endpoint: mean survival time, dose: 150.0 mg/kg/injection, schedule: Q04DX003 (ip), vehicle: saline
  T/C: 97 % of control
endpoint: mean survival time, dose: 300.0 mg/kg/injection, schedule: Q01DX009 (ip), vehicle: saline
  T/C: 100 % of control
endpoint: mean survival time, dose: 300.0 mg/kg/injection, schedule: Q04DX003 (ip), vehicle: saline
  T/C: 97 % of control

## CC(O)C(NC(=O)OC(C)(C)C)C(=O)ON1C(=O)CCC1=O (stereo not given)
[10]
  T/C: 92 % of control
[11]
  T/C: 94 % of control
[3]
  T/C: 96 % of control and 98 % of control

## CCCCC(=O)c1cc(O)ccc1O
endpoint: mean survival time, dose: 100.0 mg/kg/injection, schedule: Q01DX001 (ip), vehicle: saline
  T/C: 107 % of control
endpoint: mean survival time, dose: 200.0 mg/kg/injection, schedule: Q01DX001 (ip), vehicle: saline
  T/C: 98 % of control
endpoint: mean survival time, dose: 400.0 mg/kg/injection, schedule: Q01DX001 (ip), vehicle: saline
  T/C: 92 % of control

## Cc1nn(-c2ccccc2)c2c1C(=O)NC2Cc1ccccc1 (stereo not given)
[8]
  T/C: 103 % of control
[9]
  T/C: 100 % of control
[14]
  T/C: 100 % of control

## O=C(OCC(O)C(O)C(O)C(O)COC(=O)c1ccccc1)c1ccccc1 (stereo not given) (tested in a mixture with another compound)
[11]
  T/C: 98 % of control
[3]
  T/C: 110 % of control
[4]
  T/C: 98 % of control

## O=C(/C=C\c1ccc(Cl)c(Cl)c1)/C=C/c1ccc(Cl)c(Cl)c1
[7]
  T/C: 95 % of control
[8]
  T/C: 87 % of control
[9]
  T/C: 106 % of control

Reference: PubChem BioAssay AID256 (DTP/NCI, 2004)
